Source: patent publication US20250296917A1, “SPIRO-CYCLIC AMINE DERIVATIVES AS S1P MODULATORS” (AbbVie Deutschland GmbH & Co. KG, priority 2020, published 2025)

What was measured:
Format in all cases: cell-based
human S1PR3 = molecular target: T1, human S1PR3 (Homo sapiens, UniProt Q99500); assay: Intracellular Ca2+ release agonist assay (Calcium 5 FLIPR), CHO-K1 cells expressing human S1PR3; details: agonism, recombinant CHO-K1 cells with aequorin and Gq/i5; read-out: hS1PR3 pEC50 (converted)
T1 construct: host or cells: CHO-K1
T1 sequence (Q99500 whole entry): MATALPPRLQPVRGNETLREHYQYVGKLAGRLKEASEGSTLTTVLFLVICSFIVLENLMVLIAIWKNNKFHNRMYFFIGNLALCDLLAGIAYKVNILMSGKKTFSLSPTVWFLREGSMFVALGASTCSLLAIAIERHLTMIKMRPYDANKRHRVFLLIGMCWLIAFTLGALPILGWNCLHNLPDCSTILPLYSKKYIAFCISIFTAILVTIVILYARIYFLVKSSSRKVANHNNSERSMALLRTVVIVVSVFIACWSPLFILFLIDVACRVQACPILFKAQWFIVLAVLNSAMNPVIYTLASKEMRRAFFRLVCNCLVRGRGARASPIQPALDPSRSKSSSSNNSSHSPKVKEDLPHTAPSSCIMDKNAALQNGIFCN
Method: (§1) Agonist potency and efficacy were assessed by measurement of intracellular […] release. Recombinant CHO-K1 cells (Euroscreen, Brussels, Belgium) expressing human S1PR5, S1PR1, S1PR3 or S1PR4 receptors, aequorin, and GTP binding protein Gq/i5 were cultured using a medium containing nutrient mixture F-12 Ham (Sigma-Aldrich) supplemented with 10% FBS, 100 µg/mL gentamicin and equilibrated at 5% C02. 15.000 cells in […] medium were seeded into Biocoat poly-D-Lysine coated 384 well plates (Becton Dickinson #35-6663) and grown to ˜95% confluency after 24 h. Culture medium was replaced by an assay buffer consisting of HBBS with Ca2+ and Mg2+ (Invitrogen #14025-050), 20 mmol/L Hepes (Sigma-Aldrich #H-3375), 2.5 mmol/L probenecid (Sigma-Aldrich #P-8761, and 0.1% BSA (Sigma-Aldrich #A-7030) pH 7.4. The Calcium 5 no-wash FLIPR assay kit (Molecular Devices #5000625) was performed as described in the kit instructions. Cells were incubated with Calcium 5 dye for 1 h at 37° C., 5% CO2 in the dark. After 45 min adaptation to RT assessment of agonist stimulation of intracellular Ca2+ release was performed by addition of test compounds at various concentrations obtained by serial dilution. Phospho-fingolimod was used as positive control and reference agonist (intrinsic activity 100%).

human S1PR1 = molecular target: T2, human S1PR1 (Homo sapiens, UniProt P21453); assay: Intracellular Ca2+ release agonist assay (Calcium 5 FLIPR), CHO-K1 cells expressing human S1PR1; details: agonism, recombinant CHO-K1 cells with aequorin and Gq/i5; read-out: hS1PR1 pEC50 (converted)
T2 construct: host or cells: CHO-K1
T2 sequence (P21453 whole entry): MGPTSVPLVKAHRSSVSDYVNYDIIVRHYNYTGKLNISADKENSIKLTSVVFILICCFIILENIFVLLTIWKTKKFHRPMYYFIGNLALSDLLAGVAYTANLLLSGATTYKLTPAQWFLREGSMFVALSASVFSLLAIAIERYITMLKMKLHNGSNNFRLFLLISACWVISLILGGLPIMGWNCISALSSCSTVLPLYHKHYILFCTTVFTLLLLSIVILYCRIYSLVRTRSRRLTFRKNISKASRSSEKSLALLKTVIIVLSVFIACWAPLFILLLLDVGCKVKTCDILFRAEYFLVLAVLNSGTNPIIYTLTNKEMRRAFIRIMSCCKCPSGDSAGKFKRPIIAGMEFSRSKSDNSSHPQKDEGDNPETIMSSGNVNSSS
Method: as §1

[1] = molecular target: hS1PR2 (recombinant human S1P2 receptor) (Homo sapiens, UniProt O95136); assay: hS1PR2 agonist aequorin luminescence assay (Euroscreen/Eurofins); details: agonism, cells co-expressing apoaequorin, human Gα16 and S1P2 receptor; read-out: hS1PR2 pEC50 (converted)
Sequence of hS1PR2 (recombinant human S1P2 receptor) (O95136 whole entry): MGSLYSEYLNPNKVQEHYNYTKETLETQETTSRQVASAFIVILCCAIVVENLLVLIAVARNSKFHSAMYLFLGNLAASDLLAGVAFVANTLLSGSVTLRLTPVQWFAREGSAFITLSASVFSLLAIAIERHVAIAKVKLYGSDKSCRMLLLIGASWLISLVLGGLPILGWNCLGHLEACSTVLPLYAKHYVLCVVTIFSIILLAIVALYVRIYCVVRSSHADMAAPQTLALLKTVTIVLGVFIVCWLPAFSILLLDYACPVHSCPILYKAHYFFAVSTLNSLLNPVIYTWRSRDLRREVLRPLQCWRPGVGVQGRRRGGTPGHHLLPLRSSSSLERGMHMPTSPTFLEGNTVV
Method: Efficacy testing for hS1PR2 was performed at Euroscreen, Eurofins, France. Cells co-expressing mitochondrial Apoaequorin, recombinant human Gα16 and S1P2 receptor (FAST-0198A) grown to mid-log phase in culture media without antibiotics were detached with PBS-EDTA, centrifuged and resuspended in assay buffer (DMEM/HAM's F12 with HEPES, without phenol red+0.1 fatty acid free BSA) at a concentration of 1×10^6 cells/ml. Cells were incubated at room temperature for at least 4 h with coelenterazine. The reference agonists S1P and […] were tested to evaluate the performance of the assay on each day of the test and determine the EC50. For agonist testing, cell suspension was mixed 1:1 with test or reference agonist in 384-well plate. The resulting emission of light was recorded using a Hamamatsu Functional Drug Screening System 6000 (FDSS) luminometer. On each day of experimentation, reference compounds were tested at several concentrations to obtain a dose-response curve and an estimated EC50 value. Reference values thus obtained for the test were compared to historical values obtained from the same receptor and used to validate the experimental session.

Measured: EC50

CCc1cccc(Cl)c1COc1ccc2c(c1)CC[C@@]21CN(CCC(=O)O)CCO1 [Compound 1a, (S)-3-(5-((2-chloro-6-ethylbenzyl)oxy)-2,3-dihydrospiro[indene-1,2′-morpholin]-4′-yl)propanoic acid]
< 5.01 µM: all assays above
